Test results: PubChem BioAssay AID258 (DTP/NCI, 2004)
Values joined by “and” are separate entries in the source; they are usually repeats but may differ in a detail not shown here. Equal entries are not always repeated. Toxic doses and inconclusive results are not listed. Rule for the calls: active = survival T/C of 150% or more; inactive = T/C below 125% in these data.

System: CD2F1 mice, L1210 leukemia sc, survival T/C
Assay: NCI In Vivo Anticancer Drug Screen. Data for tumor model L1210 Leukemia (subcutaneous) in CD2F1 (CDF1) mice
Details: higher = longer survival
Method in brief: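 Mice with transplanted tumor dosed; survival/tumor size read; T/C vs vehicle controls.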

Measured: T/C

CN(C)/N=N/c1nc[nH]c1C(N)=O
active: endpoint: mean survival time, dose: 200.0 mg/kg/injection, schedule: Q01DX017 (sc), vehicle: steriod suspending solution 156 % of control | endpoint: mean survival time, dose: 400.0 mg/kg/injection, schedule: Q01DX017 (sc), vehicle: steriod suspending solution 172 % of control | endpoint: median survival time, dose: 100.0 mg/kg/injection, schedule: Q01DX009 (ip), vehicle: saline with Tween-80 157 % of control | endpoint: median survival time, dose: 100.0 mg/kg/injection, schedule: Q01DX009 (ip), vehicle: saline 157 % of control | endpoint: median survival time, dose: 100.0 mg/kg/injection, schedule: Q01DX009 (sc), vehicle: saline 151 % of control | endpoint: median survival time, dose: 150.0 mg/kg/injection, schedule: Q01DX009 (ip), vehicle: saline 178 % of control | endpoint: median survival time, dose: 200.0 mg/kg/injection, schedule: Q01DX009 (ip), vehicle: saline with Tween-80 160 % of control | endpoint: median survival time, dose: 200.0 mg/kg/injection, schedule: Q01DX009 (ip), vehicle: saline 166 % of control | endpoint: median survival time, dose: 200.0 mg/kg/injection, schedule: Q01DX017 (sc), vehicle: steriod suspending solution 152 % of control and 155 % of control | endpoint: median survival time, dose: 225.0 mg/kg/injection, schedule: Q01DX009 (sc), vehicle: saline 186 % of control | endpoint: median survival time, dose: 300.0 mg/kg/injection, schedule: Q01DX009 (ip), vehicle: saline 172 % of control | endpoint: median survival time, dose: 300.0 mg/kg/injection, schedule: Q01DX009 (sc), vehicle: steriod suspending solution 153 % of control | endpoint: median survival time, dose: 300.0 mg/kg/injection, schedule: Q01DX Z (sc), vehicle: steriod suspending solution 155 % of control | endpoint: median survival time, dose: 400.0 mg/kg/injection, schedule: Q01DX017 (sc), vehicle: steriod suspending solution 175 % of control and 177 % of control | endpoint: median survival time, dose: 600.0 mg/kg/injection, schedule: Q01DX009 (sc), vehicle: saline + alcohol 160 % of control | endpoint: median survival time, dose: 833.0 mg/kg/injection, schedule: Q01DX Z (sc), vehicle: carboxymethylcellulose (CMC) 150 % of control | endpoint: median survival time, dose: 900.0 mg/kg/injection, schedule: Q01DX009 (sc), vehicle: saline + alcohol 155 % of control | endpoint: median survival time, dose: 1388.0 mg/kg/injection, schedule: Q01DX Z (sc), vehicle: carboxymethylcellulose (CMC) 155 % of control
inactive: endpoint: mean survival time, dose: 39.0 mg/kg/injection, schedule: Q01DX009 (sc), vehicle: steriod suspending solution 118 % of control | endpoint: mean survival time, dose: 50.0 mg/kg/injection, schedule: Q01DX017 (sc), vehicle: steriod suspending solution 117 % of control | endpoint: mean survival time, dose: 65.0 mg/kg/injection, schedule: Q01DX009 (sc), vehicle: steriod suspending solution 118 % of control | endpoint: median survival time, dose: 6.25 mg/kg/injection, schedule: Q01DX009 (ip), vehicle: saline 104 % of control | endpoint: median survival time, dose: 12.5 mg/kg/injection, schedule: Q01DX009 (ip), vehicle: saline 121 % of control | endpoint: median survival time, dose: 39.0 mg/kg/injection, schedule: Q01DX009 (sc), vehicle: steriod suspending solution 114 % of control | endpoint: median survival time, dose: 39.0 mg/kg/injection, schedule: Q01DX Z (sc), vehicle: steriod suspending solution 111 % of control | endpoint: median survival time, dose: 50.0 mg/kg/injection, schedule: Q01DX017 (sc), vehicle: steriod suspending solution 118 % of control and 122 % of control | endpoint: median survival time, dose: 65.0 mg/kg/injection, schedule: Q01DX009 (sc), vehicle: steriod suspending solution 117 % of control | endpoint: median survival time, dose: 65.0 mg/kg/injection, schedule: Q01DX Z (sc), vehicle: carboxymethylcellulose (CMC) 100 % of control | endpoint: median survival time, dose: 65.0 mg/kg/injection, schedule: Q01DX Z (sc), vehicle: steriod suspending solution 116 % of control | endpoint: median survival time, dose: 108.0 mg/kg/injection, schedule: Q01DX Z (sc), vehicle: carboxymethylcellulose (CMC) 100 % of control | endpoint: median survival time, dose: 180.0 mg/kg/injection, schedule: Q01DX Z (sc), vehicle: carboxymethylcellulose (CMC) 100 % of control | endpoint: median survival time, dose: 300.0 mg/kg/injection, schedule: Q01DX Z (sc), vehicle: carboxymethylcellulose (CMC) 100 % of control | endpoint: median survival time, dose: 500.0 mg/kg/injection, schedule: Q01DX Z (sc), vehicle: carboxymethylcellulose (CMC) 111 % of control and 100 % of control | endpoint: median survival time, dose: 600.0 mg/kg/injection, schedule: Q01DX009 (sc), vehicle: saline 118 % of control | endpoint: median survival time, dose: 800.0 mg/kg/injection, schedule: Q01DX009 (ip), vehicle: saline with Tween-80 96 % of control | endpoint: median survival time, dose: 1200.0 mg/kg/injection, schedule: Q01DX009 (sc), vehicle: saline 90 % of control

CSC1SCC2C(=O)N(C)C(C(C)C)C(=O)OCC(NC(=O)c3cnc4ccccc4n3)C(=O)NC(C)C(=O)N(C)C1C(=O)N(C)C(C(C)C)C(=O)OCC(NC(=O)c1cnc3ccccc3n1)C(=O)NC(C)C(=O)N2C (stereo not drawn)
inactive: endpoint: median survival time, dose: 7.5 micrograms/kg/injection, schedule: Q01DX009 (ip), vehicle: Klucel (hydroxypropylcellulose) (HPC) 98 % of control | endpoint: median survival time, dose: 15.0 micrograms/kg/injection, schedule: Q01DX009 (ip), vehicle: Klucel (hydroxypropylcellulose) (HPC) 97 % of control | endpoint: median survival time, dose: 30.0 micrograms/kg/injection, schedule: Q01DX009 (ip), vehicle: Klucel (hydroxypropylcellulose) (HPC) 96 % of control | endpoint: median survival time, dose: 60.0 micrograms/kg/injection, schedule: Q01DX009 (ip), vehicle: Klucel (hydroxypropylcellulose) (HPC) 100 % of control | endpoint: median survival time, dose: 120.0 micrograms/kg/injection, schedule: Q01DX009 (ip), vehicle: Klucel (hydroxypropylcellulose) (HPC) 102 % of control

NCCCN=c1ccc2c3c1c(O)c1c(O)ccc(=O)c1c3[nH]n2CCNCCO
inactive: endpoint: median survival time, dose: 0.8 mg/kg/injection, schedule: Q03HX024 (ip), vehicle: saline 118 % of control | endpoint: median survival time, dose: 2.34 mg/kg/injection, schedule: Q03HX008 (ip), vehicle: saline 124 % of control | endpoint: median survival time, dose: 3.46 mg/kg/injection, schedule: Q01DX009 (ip), vehicle: water 114 % of control | endpoint: median survival time, dose: 3.7 mg/kg/injection, schedule: Q01DX005 (ip), vehicle: saline 121 % of control | endpoint: median survival time, dose: 3.7 mg/kg/injection, schedule: Q04DX003 (ip), vehicle: saline 115 % of control | endpoint: median survival time, dose: 5.7 mg/kg/injection, schedule: Q01DX009 (ip), vehicle: water 121 % of control | endpoint: median survival time, dose: 6.2 mg/kg/injection, schedule: Q04DX003 (ip), vehicle: saline 110 % of control | endpoint: median survival time, dose: 10.4 mg/kg/injection, schedule: Q03HX008 (ip), vehicle: saline 86 % of control | endpoint: median survival time, dose: 11.2 mg/kg/injection, schedule: Q01DX001 (ip), vehicle: saline 120 % of control | endpoint: median survival time, dose: 16.0 mg/kg/injection, schedule: Q01DX009 (ip), vehicle: saline 121 % of control | endpoint: median survival time, dose: 18.7 mg/kg/injection, schedule: Q01DX001 (ip), vehicle: saline 119 % of control | endpoint: median survival time, dose: 26.7 mg/kg/injection, schedule: Q01DX009 (ip), vehicle: saline 95 % of control | endpoint: median survival time, dose: 26.7 mg/kg/injection, schedule: Q01DX009 (ip), vehicle: water 96 % of control | endpoint: median survival time, dose: 28.8 mg/kg/injection, schedule: Q01DX005 (ip), vehicle: saline 107 % of control | endpoint: median survival time, dose: 80.0 mg/kg/injection, schedule: Q04DX003 (ip), vehicle: saline 118 % of control
active: endpoint: median survival time, dose: 2.2 mg/kg/injection, schedule: Q03HX024 (ip), vehicle: saline 161 % of control | endpoint: median survival time, dose: 3.6 mg/kg/injection, schedule: Q03HX024 (ip), vehicle: saline 212 % of control | endpoint: median survival time, dose: 6.4 mg/kg/injection, schedule: Q03HX008 (ip), vehicle: saline 175 % of control | endpoint: median survival time, dose: 9.6 mg/kg/injection, schedule: Q01DX009 (ip), vehicle: saline 207 % of control | endpoint: median survival time, dose: 10.4 mg/kg/injection, schedule: Q01DX005 (ip), vehicle: saline 182 % of control | endpoint: median survival time, dose: 16.0 mg/kg/injection, schedule: Q01DX009 (ip), vehicle: water 208 % of control | endpoint: median survival time, dose: 17.3 mg/kg/injection, schedule: Q01DX005 (ip), vehicle: saline 215 % of control | endpoint: median survival time, dose: 17.3 mg/kg/injection, schedule: Q04DX003 (ip), vehicle: saline 153 % of control | endpoint: median survival time, dose: 28.8 mg/kg/injection, schedule: Q04DX003 (ip), vehicle: saline 182 % of control | endpoint: median survival time, dose: 48.0 mg/kg/injection, schedule: Q04DX003 (ip), vehicle: saline 268 % of control | endpoint: median survival time, dose: 51.3 mg/kg/injection, schedule: Q01DX001 (ip), vehicle: saline 153 % of control | endpoint: median survival time, dose: 86.4 mg/kg/injection, schedule: Q01DX001 (ip), vehicle: saline 225 % of control
